Test system: Ninety four (94) cell lines and PBMC
Experiment: Cell viability assay, SRB staining, 94 cell lines and PBMC (Example 7, Experiment 2)
Format: cell-based
Experimental: Ninety four (94) cell lines were seeded at a density varying from 500 to 7000 cells/well depending on their growth characteristics. PBMC were seeded at the density 50,000-100,000 cells/well. Cells were incubated for 48 h prior to compound treatment. Compound 1 and DON were evaluated at a concertation range of 1 nM up to 100 μM. Compound 1 dilutions in DMSO and DON dilutions in PBS were performed in 96-well 0.5 mL plates (Greiner Bio-One, Germany). Compounds were then diluted 1:100 in RPMI medium. […] of cells were treated by mixing with 10 μL of the compound-containing media (resulting in a final DMSO concentration of 0.1%). The cells were allowed to grow at 37° C. for 120 h. Cells were fixed to the surface by addition of 10% TCA (for adherent growing cells) or 50% TCA (for semi-adherent growing cells or cells growing in suspension). After an hour of incubation at 4° C., plates were washed twice with 400 μL of deionized water and dried. Cells were then stained with 100 μL of 0.04% wt/v SRB. The plates were incubated at room temperature for at least 30 min and washed six times with 1% acetic acid to remove unbound stain. The plates were left to dry at room temperature and bound SRB was solubilized with 100 μL of 10 mM Tris base. Optical density was measured at 492, 520 and 560 nm using a Deelux-LED96 plate reader (Deelux Labortechnik GmbH, Germany).
Cell lines were purchased directly from the ATCC, NCI, CLS, and DSMZ cell line collections. A master bank and working aliquots were prepared. Cells used for the study had undergone less than 20 passages. To rule out potential contamination or wrong assignment, all cell lines were tested by STR analysis. Absence of mycoplasma contamination was confirmed for all cell lines used in the studies.
The cell lines were grown in the media recommended by the suppliers in the presence of 100 U/mL penicillin and 100 μg/mL streptomycin supplied with 10% FCS (PAA, Germany). RPMI 1640, DMEM, and MEM Earle's medium were from PAA (Coelbe, Germany), supplements 2 mM L-glutamine, 1 mM Na-pyruvate and 1% NEAA were from PAA (Coelbe, Germany), 2.5% horse serum, hydrocortisone, transferin, beta-estradiol, selenite and 1 U/mL insulin from Sigma-Aldrich (Munich, Germany). RPMI medium was used for culturing the following cell lines: 5637, 22RV1, 7860, A2780, A431, A549, ACHN, ASPC1, BT20, BXPC3, CAKI1, CLS439, COLO205, COLO678, DLD1, DU145, EFO21, EJ28, HCT15, HS578T, IGROV1, JAR, LOVO, MCF7, MDA MB231, MDA MB435, MDA MB436, MDA MB468, MHHES1, MT3, NCI H292, NCI H358M, NCI H460, NCIH82, OVCAR3, OVCAR4, PANC 1005 (addition of insulin), PBMC, PC3, RDES, SF268, SF295, SKBR3, SK MEL28, SKMEL5, SKOV3, SW620, U2OS, UMUC3, and U031.
DMEM medium was used to culture A204, A375, A673, C33A, CASKI, HCT116, HEPG2, HS729, HT29, J82, MG63, MIAPACA2 (addition of horse serum), PANC1, PLCPRF5, RD, SAOS2, SKLMS1, SKNAS, SNB75, T24, and TE671.
MEM Earle's medium was used for CACO2, CALU6, HEK293, HELA, HT1080, IMR90, JEG3, JIMT1, SKHEP1, SKNSH, and U87MG. Cell seeding conditions were optimized for each cell line. The cell seeding density varied from 500 to 7000 cells/well depending on their growth characteristics. Peripheral blood mononuclear cells (PBMC) were freshly isolated from whole blood of an anonymous donor through density gradient centrifugation using Ficoll solution (d=1.077). In short, blood was diluted 1:1 with PBS and carefully placed on the Ficoll. After centrifugation 1000×g for 15 min (braking rate 0), the ring containing mainly leucocytes was collected in PBS followed by three times washing with PBS to reduce the platelets. PBMC were seeded at the density 50,000-100,000 cells/well. Cells were grown in 5% CO2 atmosphere in a NB-203XXL incubator (N-BIOTEK Inc., Korea).
Ninety-four cell lines were tested in parallel. Cell growth and treatment were performed in 96 well microtitre plates CELLSTAR® (Greiner Bio-One, Germany). […]

[1] = Homo sapiens, MDA-MB-468, MDAMB468, breast
[2] = Homo sapiens, MG-63, MG63, bone
[3] = Homo sapiens, MHH-ES-1, MHHES1, bone
[4] = Homo sapiens, MIA PaCa-2, MIAPACA2, pancreas
[5] = Homo sapiens, MINO, hematological
[6] = Homo sapiens, MV4-11, MV4-11, hematological
[7] = Homo sapiens, NCI-H292, NCIH292, lung
[8] = Homo sapiens, NCI-H460, NCIH460, lung
[9] = Homo sapiens, OVCAR-3, OVCAR3, ovary
[10] = Homo sapiens, OVCAR-4, OVCAR4, ovary
[11] = Homo sapiens, PANC-1, PANC1, pancreas
[12] = Homo sapiens, PLC-PRF-5, PLCPRF5, liver
[13] = Homo sapiens, Panc1005, PANC1005, pancreas
[14] = Homo sapiens, SAOS-2, SAOS2, bone
[15] = Homo sapiens, SF-268, SF268, brain
[16] = Homo sapiens, SF-295, SF295, brain
[17] = Homo sapiens, SK-BR-3, SKBR3, breast
[18] = Homo sapiens, SK-HEP1, SKHEP1, liver
[19] = Homo sapiens, SK-LMS-1, SKLMS1, uterus
[20] = Homo sapiens, SK-MEL-5, SKMEL5, skin
[21] = Homo sapiens, SK-MEL-28, SKMEL28, skin
[22] = Homo sapiens, SK-N-SH, SKNSH, brain
[23] = Homo sapiens, SK-OV-3, SKOV3, ovary
[24] = Homo sapiens, SU-DHL-6, SU-DHL-6, hematological
[25] = Homo sapiens, SW-620, SW620, colon
[26] = Homo sapiens, TE-671, TE671, muscle
[27] = Homo sapiens, THP-1, THP-1, hematological
[28] = Homo sapiens, U-87 MG, U87MG, brain
[29] = Homo sapiens, UMUC3, UMUC3, bladder
[30] = Homo sapiens, UO-31, UO31, kidney
[31] = Homo sapiens, WSU-NHL, hematological

[N-]=[N+]=CC(=O)CC[C@H](N)C(=O)O [DON, 6-Diazo-5-oxo-L-norleucine, reference compound]
IC50 (Homo sapiens, MDA-MB-436, MDAMB436, breast): 19.8 µM | GI50 [1]: 0.427 µM | IC50 [1]: 0.599 µM | GI50 [2]: 4.61 µM | IC50 [2]: 5.3 µM | GI50 [3]: 1.85 µM | IC50 [3]: 2 µM | GI50 [4]: 3.32 µM | IC50 [4]: 3.58 µM | GI50 [5]: 0.497 µM | IC50 [5]: 0.633 µM | GI50 [6]: 1.22 µM | IC50 [6]: 1.4 µM | GI50 [7]: 5.72 µM | IC50 [7]: 53.1 µM | GI50 [8]: 4.11 µM | IC50 [8]: 4.31 µM | GI50 [9]: 0.889 µM | IC50 [9]: 2.3 µM | GI50 [10]: 0.651 µM | IC50 [10]: 0.752 µM | GI50 [11]: 12.3 µM | IC50 [11]: 13.2 µM | GI50 [12]: 6.53 µM | IC50 [12]: 8.04 µM | GI50 [13]: 4.17 µM | IC50 [13]: 8.6 µM | GI50 (Homo sapiens, Ramos, hematological): 0.672 µM | GI50 [14]: 6.36 µM | IC50 [14]: 33.2 µM | GI50 [15]: 6.32 µM | IC50 [15]: 7.43 µM | GI50 [16]: 4.71 µM | IC50 [16]: 5.23 µM | GI50 [17]: 2.14 µM | IC50 [17]: 3.21 µM | GI50 [18]: 1.79 µM | IC50 [18]: 2.62 µM | GI50 [19]: 1.66 µM | IC50 [19]: 2.3 µM | GI50 [20]: 2.19 µM | IC50 [20]: 3.02 µM | GI50 [21]: 1.69 µM | IC50 [21]: 2.19 µM | GI50 (Homo sapiens, SK-N-AS, SKNAS, brain): 12.6 µM | GI50 [22]: 5.04 µM | IC50 [22]: 7.11 µM | GI50 [23]: 0.769 µM | IC50 [23]: 1.21 µM | GI50 (Homo sapiens, SNB-75, SNB75, brain): 15.5 µM | GI50 (Homo sapiens, SU-DHL10, SU-DHL-10, hematological): 8.42 µM | GI50 [24]: 0.623 µM | IC50 [24]: 0.761 µM | GI50 [25]: 5.38 µM | IC50 [25]: 6.25 µM | GI50 [26]: 4.63 µM | IC50 [26]: 5.1 µM | GI50 [27]: 1.02 µM | IC50 [27]: 1.09 µM | GI50 (Homo sapiens, U2OS, bone): 5.91 µM | IC50 (Homo sapiens, U2OS, bone): 8.4 µM | GI50 [28]: 10.5 µM | IC50 [28]: 11.3 µM | GI50 [29]: 2.23 µM | IC50 [29]: 2.76 µM | GI50 [30]: 0.981 µM | IC50 [30]: 18.6 µM | GI50 [31]: 0.796 µM | IC50 [31]: 0.639 µM | IC50 (J82, bladder): 28.9 µM | IC50 (JAR, placenta): 3.04 µM | IC50 (MT3, breast): 0.791 µM | GI50 (NCI-H358M, NCIH358M, lung): 1.61 µM | IC50 (NCI-H358M, NCIH358M, lung): 4.98 µM | GI50 (PBMC, 5637, bladder): 0.796 µM | GI50 (PBMC, CLS439, bladder): 6.87 µM | GI50 (PBMC, HS729, muscle): 7.42 µM | GI50 (PBMC, J82, bladder): 23.2 µM | GI50 (PBMC, JAR, placenta): 2.81 µM | GI50 (PBMC, MT3, breast): 0.638 µM | GI50 (PBMC, PC3, prostate): 8.37 µM | GI50 (PBMC, RD, muscle): 6.79 µM | GI50 (PBMC, T24, bladder): 3.86 µM | IC50 (PC3, prostate): 11.7 µM | IC50 (RD, muscle): 9.13 µM | GI50 (RD-ES, RDES, bone): 1.96 µM | IC50 (RD-ES, RDES, bone): 3.18 µM | IC50 (T24, bladder): 4 µM
